{
  "source": "ChEMBL document CHEMBL1128516",
  "about": "“A check on rational drug design: crystal structure of a complex of human immunodeficiency virus type 1 protease with a novel gamma-turn mimetic inhibitor” (J Med Chem, 1995)",
  "biological_target": "Human immunodeficiency virus type 1 protease (Human immunodeficiency virus 1, UniProt Q72874)",
  "experiment": "Competitive inhibitory activity against HIV-1 protease",
  "data": [
    {"smiles": "COC(=O)C(NC(=O)C(NC(=O)[C@H](C)N1CCC(C(C)N(C)C(C)C(=O)O)=CC(Cc2ccccc2)C1=O)C(C)C)C(C)C", "note": "(stereo partly specified)", "values": [
      {"measurement": "Ki", "value": 147, "unit": "µM"}
    ]}
  ]
}
